The values that follow come from ChEMBL document CHEMBL3745668, “Synthesis and biological evaluation of novel 5-hydroxylaminoisoxazole derivatives as lipoxygenase inhibitors and metabolism enhancing agents” (Bioorg Med Chem, 2016).

The target of data set [1] is T1, Seed linoleate 13S-lipoxygenase-1 (Glycine max, UniProt P08170).
T1 sequence (P08170 whole entry): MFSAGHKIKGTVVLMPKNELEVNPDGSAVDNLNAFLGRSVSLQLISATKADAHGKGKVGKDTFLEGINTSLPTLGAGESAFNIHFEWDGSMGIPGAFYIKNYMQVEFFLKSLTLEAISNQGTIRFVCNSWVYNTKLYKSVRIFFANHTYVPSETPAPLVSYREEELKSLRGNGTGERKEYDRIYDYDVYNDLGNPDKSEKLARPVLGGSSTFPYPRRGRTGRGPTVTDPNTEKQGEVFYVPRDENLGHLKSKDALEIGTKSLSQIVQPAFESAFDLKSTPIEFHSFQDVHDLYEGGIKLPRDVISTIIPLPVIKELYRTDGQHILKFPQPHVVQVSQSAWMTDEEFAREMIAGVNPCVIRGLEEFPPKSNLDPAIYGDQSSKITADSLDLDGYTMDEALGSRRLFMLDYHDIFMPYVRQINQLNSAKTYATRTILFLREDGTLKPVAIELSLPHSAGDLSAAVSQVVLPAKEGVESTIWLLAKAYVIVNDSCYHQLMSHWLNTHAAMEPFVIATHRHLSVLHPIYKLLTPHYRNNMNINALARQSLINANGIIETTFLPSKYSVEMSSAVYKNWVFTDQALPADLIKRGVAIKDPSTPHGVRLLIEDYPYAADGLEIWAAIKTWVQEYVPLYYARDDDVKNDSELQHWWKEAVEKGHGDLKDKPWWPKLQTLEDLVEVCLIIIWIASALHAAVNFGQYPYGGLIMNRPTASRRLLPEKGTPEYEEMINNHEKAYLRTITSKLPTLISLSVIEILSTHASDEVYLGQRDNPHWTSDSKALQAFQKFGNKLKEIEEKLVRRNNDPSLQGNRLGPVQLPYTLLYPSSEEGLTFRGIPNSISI
The experiment in a line: Inhibition of soybean LOX1 assessed as reduction in linoleic acid oxidation measured every 10 s for 10 mins by spectrophotometry analysis.

Data set [2] in a line: Antioxidant activity assessed as DPPH radical scavenging activity after 30 mins by spectrophotometry analysis. It is filed as physicochemical. (Loss of DPPH colour is used to gauge radical scavenging.)
For data set [3], the system named is Brain. The experiment in a line: Antioxidant activity in albino rat brain homogenate assessed as inhibition of Fe(II)-induced lipid peroxidation after 60 mins by TBARS assay. It is filed as functional, tissue-based.
The subject of data set [4] is Brain. The experiment in a line: Antioxidant activity in albino rat brain homogenate assessed as inhibition of Fe(III)-induced lipid peroxidation after 60 mins by TBARS assay. It is filed as functional, tissue-based. The settings on record: 1 h.
The species entered for data set [5] is Rattus norvegicus. Nature of the data set: Effect on mitochondrial membrane potential in albino rat liver mitochondria using succinate as substrate by safranine A staining based assay in presence of rotenone or glutamate/malate. It is filed as functional.
For data set [6], the species on record is Rattus norvegicus. The experiment in a line: Effect on calcium-induced depolarization of albino rat liver mitochondria using succinate as substrate by safranine A staining based assay in presence of rotenone or glutamate/malate. The data set is classed as functional.
Data set [7] has as its target T2, Seed linoleate 13S-lipoxygenase-1 (Glycine max) (UniProt P08170).
T2 sequence (whole entry): T1 sequence (P08170 whole entry)
Nature of the data set: Inhibition of soybean LOX1 assessed as reduction in linoleic acid oxidation at 50 uM measured every 10 s for 10 mins by spectrophotometry analysis.

Data set [8] in a line: Cytotoxicity against albino rat primary cerebellar granule neurons assessed as reduction in cell viability at 30 uM after 24 hrs by MTT assay. As to conditions: primary cerebellar granule neuron. Background: Tetrazolium dyes change colour on reduction, which living cells bring about.
The species named for data set [9] is Rattus norvegicus. Nature of the data set: Increase in oxygen consumption rate of mitochondrial coupled state respiration in albino rat liver mitochondria using succinate as substrate at 10 uM by XF96 extracellular flux analysis in presence of rotenone. The data set is classed as functional.
For data set [10], the species on record is Rattus norvegicus. Nature of the data set: Increase in FCCP-stimulated oxygen consumption rate of mitochondrial coupled state respiration in albino rat liver mitochondria at 10 uM by XF96 extracellular flux analysis. The data set is classed as functional.
Data set [11] is filed under the species Rattus norvegicus. The experiment in a line: Increase in oxygen consumption rate of mitochondrial resting respiration in albino rat liver mitochondria at 10 uM by XF96 extracellular flux analysis in presence of oligomycin. The data set is classed as functional.
Data set [12] in a line: Cytotoxicity against albino rat primary cerebellar granule neurons assessed as reduction in cell viability at 30 uM after 24 hrs by MTT assay relative to control. The settings on record: primary cerebellar granule neuron.
A short description of data set [13]: Antioxidant activity assessed as DPPH radical scavenging activity after 20 mins. The data set is classed as physicochemical.
Data set [14] relates to Brain. Nature of the data set: Antioxidant activity in Wstar rat brain homogenate assessed as inhibition of Fe(II)-induced TBARS formation incubated for 15 mins by spectrophotometry analysis. The data set is classed as functional, tissue-based. As to conditions: 0.25 h.
Another data set deals with SH-SY5Y. Nature of the data set: Cytotoxicity against human SH-SY5Y cells assessed as reduction in cell viability at 30 uM after 24 hrs by MTT assay relative to control. It is filed as cell-based.
The mark [15] stands for this setting: Rattus norvegicus, Brain, 1 h, read-out: IC50.

Activity calls are given as the source filed them. No cut-off for these calls is given here. Bounds are passed on as bounds.

As usually defined, the IC50 is the point on the concentration scale where inhibition reaches its midpoint. One may read the EC50 as the concentration giving half of the maximal effect. Take `O=C(OC1C2CC3CC(C2)CC1C3)c1cc(N(O)C2CCCO2)on1` (stereo not given): the concentration for half-maximal inhibition (IC50) in [1] (read-out: IC50) was found to be 4 µM; with Brain [3] (setting [15]) it was 10.5 µM; in the data set with Brain [4], 1.21 µM. In addition, in data set [2], the half-maximal effective concentration (EC50) is 71 µM. Further, the result in the data set filed under Rattus norvegicus [5] and in the data set filed under Rattus norvegicus [6] was inactive.

Regarding `CC12CC3CC(C)(C1)CC(OC(=O)c1cc(N(O)C4CCCO4)on1)(C3)C2` (stereo not given), the values for the IC50 (in data set [1] (read-out: IC50); in the data set with Brain [3] (setting [15]); with Brain [4]) were 1 µM, 5.16 µM and 1.48 µM, respectively. Moreover, the inhibition result in [7] is “Active”. Besides, in data set [2], the 50% effective concentration (EC50) turned out to be 38 µM. Also, the Activity result in data set [8] was “Non-toxic”. Moreover, the result in the data set filed under Rattus norvegicus [9] and in the data set filed under Rattus norvegicus [10] was Active. In addition, the result in the data set filed under Rattus norvegicus [11], in the data set filed under Rattus norvegicus [5] and in the data set listed under Rattus norvegicus [6] was inactive.

With `O=C(OC12CC3CC(CC(C3)C1)C2)c1cc(N(O)C2CCCO2)on1` (stereo not given), the IC50 was determined as 25 µM in data set [1] (read-out: IC50), 0.33 µM in the data set on Brain [3] (setting [15]) and 1.37 µM with Brain [4]. Further, the EC50 in data set [2] is 16 µM. For the same compound, the outcome in the data set filed under Rattus norvegicus [9] and in the data set filed under Rattus norvegicus [10] was Active. Further, the outcome in the data set listed under Rattus norvegicus [11], in the data set listed under Rattus norvegicus [5] and in the data set filed under Rattus norvegicus [6] was inactive.

As to `O=C(OCCC12CC3CC(CC(C3)C1)C2)c1cc(N(O)C2CCCO2)on1` (stereo not given), the figures for the IC50 (in data set [1] (read-out: IC50); with Brain [3] (setting [15]); in the data set with Brain [4]) were 0.4 µM, 3.15 µM and 5.25 µM, respectively. Also, the concentration giving a half-maximal response (EC50) in [2] was 21 µM. The Activity in data set [12] is given as 77%. Also, the result in the data set listed under Rattus norvegicus [9] and in the data set filed under Rattus norvegicus [10] was Active. Also, the outcome in the data set filed under Rattus norvegicus [11], in the data set listed under Rattus norvegicus [5] and in the data set filed under Rattus norvegicus [6] was inactive.

Turning to `O=C(OCCOC12CC3CC(CC(C3)C1)C2)c1cc(N(O)C2CCCO2)on1` (stereo not given), the values for the IC50 result (in data set [1]; in the data set on Brain [3]; with Brain [4]) were “Not Active”, “Not Active” and 35 µM, respectively. Besides, the half-maximal effective concentration (EC50) in data set [2] is over 100 µM. Also, in data set [8], the Activity entry is “Non-toxic”. For the same compound, the result in the data set filed under Rattus norvegicus [9] and in the data set listed under Rattus norvegicus [10] was Active. For the same compound, the outcome in the data set filed under Rattus norvegicus [11], in the data set listed under Rattus norvegicus [5] and in the data set listed under Rattus norvegicus [6] was inactive.

Consider `C[C@H](c1cc2ccccc2s1)N(O)C(N)=O`, for which, in data set [2], the EC50 was 14 µM. Also, the results for the IC50 (in data set [13]; in the data set with Brain [14]) were 43 µM and over 50 µM, respectively.

Take `CC(C)OC(=O)C12CC3CC(CC(OC(=O)c4cc(N(O)C5CCCO5)on4)(C3)C1)C2` (stereo not given): the 50% inhibitory concentration (IC50) in data set [1] (read-out: IC50) was determined as 277 µM; with Brain [3] (setting [15]), 2.74 µM; in the data set with Brain [4] it was 1.58 µM. The EC50 in [2] was over 100 µM. Also, in data set [8], the Activity result was “Non-toxic”. Besides, the result in the data set filed under Rattus norvegicus [9] and in the data set filed under Rattus norvegicus [10] was Active. The result in the data set filed under Rattus norvegicus [11], in the data set listed under Rattus norvegicus [5] and in the data set filed under Rattus norvegicus [6] was inactive.

`O=C(OCC12CC3CC(CC(C3)C1)C2)c1cc(N(O)C2CCCO2)on1` (stereo not given): the IC50 is 16 µM in [1] (read-out: IC50), 6.58 µM in the data set on Brain [3] (setting [15]) and 22 µM with Brain [4]. Further, the EC50 in data set [2] is 70 µM. Also, the Activity result is “Non-toxic” in [8] and 22% with SH-SY5Y. In addition, the outcome in the data set listed under Rattus norvegicus [9] and in the data set filed under Rattus norvegicus [10] was Active. The outcome in the data set filed under Rattus norvegicus [11], in the data set listed under Rattus norvegicus [5] and in the data set filed under Rattus norvegicus [6] was inactive.

For the compound `O=C(OCc1ccc(C23CC4CC(CC(C4)C2)C3)cc1)c1cc(N(O)C2CCCO2)on1` (stereo not given), the values for the half-maximal inhibitory concentration (IC50) result (in data set [1]; in the data set on Brain [3] (setting [15]); in the data set with Brain [4]) were “Not Active”, 3.41 µM and 5.45 µM, respectively. Further, the EC50 in data set [2] was over 100 µM. Also, the Activity result in data set [8] is “Non-toxic”. Moreover, the result in the data set listed under Rattus norvegicus [9] and in the data set listed under Rattus norvegicus [10] was Active. Also, the outcome in the data set listed under Rattus norvegicus [11], in the data set filed under Rattus norvegicus [5] and in the data set filed under Rattus norvegicus [6] was inactive.
